Test results published in patent publication US4670433A, “Oxadiazolyl imidazobenzodiazepine derivatives pharmaceutical compositions thereof, and method of treating therewith” (A/S Ferrosan, priority 1985, dated 1987).

Columns and labels:
benzodiazepine receptors [1] = test: displacement of 3H-Ro 15-1788 from benzodiazepine receptors in vitro (rat cerebral cortical membrane homogenate); conditions: 50% displacement of specific binding of 3H-Ro 15-1788, 30° C.
Experimental: (§1) The pharmaceutical potency of the compounds of the present invention is evidenced by determining their capability for displacing radioactively-labelled flunitrazepam and the imidazobenzodiazepine ^3 H-Ro 15-1788 from such benzodiazepine receptors.
(§2) The displacement activity of the compounds of the invention has been determined by determining their IC50 and ED50 values. The IC50 value represents the concentration (nM, 30° C.) which causes a displacement of 50% of the specific binding of ^3 H-Ro 15-1788 in samples comprising a total volume of 1 ml.
The displacement test is performed as follows:
750 μl of rat cerebral cortical membrane homogenate was incubated with 100 μl of 5 nM ^3 H-Ro 15-1788 in water at 30° C. Then 100 μl of a solution of the test compound and 50 μl of Krebs buffer was added. After incubation the binding reaction was terminated by filtration through Whatman GF/B glass fibre filters followed by 2×5 ml wash with ice-cold buffer and the radioactivity was measured by scintillation counting. The IC50 was determined by including at least four concentrations of the test compound and log/probit analysis of the resulting data.

benzodiazepine receptors [2] = test: in vivo displacement of 3H-flunitrazepam from benzodiazepine receptors in living mouse brain; conditions: dose reducing specific 3H-flunitrazepam binding to 50% of control; mice, usually subcutaneously, 15 min before 3H-flunitrazepam i.v., killed after a further 20 min, forebrain membranes
Experimental: as §1, §2
The ED50 value represents the dose (mg/kg) of a test substance which causes the specific binding of flunitrazepam to benzodiazepine receptors in a living brain to be reduced to 50% of the control value.
Such an in vivo test is carried out as follows:
Groups of mice are injected with the test substance at different doses and usually subcutaneously. Fifteen minutes later ^3 H-flunitrazepam is given intravenously to the mice and, after a further twenty minutes, the mice are killed. Their forebrain membranes are removed and the radioactivity of these forebrain membranes is measured by scintillation counting. The ED50 value is determined from dose-response curves.

`CCc1noc(-c2ncn3c2CN(C)C(=O)c2c(C)cccc2-3)n1` was tested, and the IC50 (benzodiazepine receptors [1]) was 44.8 nM and the “in vivo ED50” value (benzodiazepine receptors [2]) was 2.2 mg/kg.

For `CCc1noc(-c2ncn3c2C2CCN2C(=O)c2c(C)cccc2-3)n1` (stereo not drawn), the IC50 (benzodiazepine receptors [1]) was 30 nM and the “in vivo ED50” value (benzodiazepine receptors [2]) was 0.4 mg/kg.

For `Cc1cccc2c1C(=O)N1CCC1c1c(-c3nc(C4CC4)no3)ncn1-2` (stereo not drawn), the IC50 (benzodiazepine receptors [1]) was 23 nM and the “in vivo ED50” value (benzodiazepine receptors [2]) was 0.2 mg/kg.

In the case of `CCc1nc(-c2ncn3c2CN(C)C(=O)c2c-3cccc2C(F)(F)F)no1`, the IC50 (benzodiazepine receptors [1]) is reported as 5.6 nM and the “in vivo ED50” value (benzodiazepine receptors [2]) is reported as 0.5 mg/kg.

`COc1ccc2c(c1)C(=O)N(C)Cc1c(-c3nc(C)no3)ncn1-2` was tested, and the “in vivo ED50” value (benzodiazepine receptors [2]) was 4.0 mg/kg.
